Test results as given in patent US20090325933A1, “Pyrimidinone Derivatives and Their Use as a Drug” (Ipsen Pharma S.A.S., priority 2006, published 2009).
Read-outs that look alike come from different tables or passages of the source.

Molecular target: T1, human CB2 receptors (Homo sapiens, UniProt P34972)
T1 construct: expressed in transfected cells; membrane preparations
Assay: Affinity for human CB2 cannabinoid receptors: inhibition of [3H]-CP55940 binding to transfected CHO-K1 cell membranes
Settings: inhibition constant value range, [3H]-CP55940 1 nM, Cheng-Prusoff
Description: The affinity of the compounds of the present invention for the different sub-types of cannabinoid receptors was measured according to procedures analogous to those described hereafter for the human CB2 receptor.
Study of the Affinity of the Compounds for the Human CB2 Cannabinoid Receptors:
The affinity of the compounds of the invention for the human CB2 receptors is determined by measuring the inhibition of the binding of [^3H]-CP55940 to transfected CHO-K1 cell membrane preparations.
The CHO-K1 cells expressing the human CB2 receptors in stable fashion are cultured in an RPMI 1640 medium containing 10% foetal calf serum, 2 mM of glutamine, 100 U/ml of penicillin, 0.1 mg/ml of streptomycin and 0.5 mg/ml of G418. The cells are collected with 0.5 mM of EDTA and centrifuged at 500 g for 5 minutes at 4° C. The pellet is re-suspended in phosphate buffered saline medium (PBS) and centrifuged at 500 g for 5 minutes at 4° C. The pellet is re-suspended in a Tris 50 mM buffer medium at pH 7.4 and centrifuged at 500 g for 5 minutes at 4° C. The cells are lysed by sonication and centrifuged at 39,000 g for 10 minutes at 4° C. The pellet is re-suspended in the Tris 50 mM buffer medium at pH 7.4 and centrifuged at 50,000 g for 10 minutes at 4° C. The membranes obtained in this last pellet are stored at −80° C.
Measurement of the competitive inhibition of the binding of the [^3H]-CP55940 to the CB2 receptors is carried out in duplicate using 96-well polypropylene plates. The cell membranes (10 μg of proteins/well) are incubated with the [^3H]-CP55940 (1 nM) for 60 minutes at 25° C. in a Tris-HCl 50 mM buffer medium, pH 7.4, comprising 0.1% bovine serum albumin (BSA), 5 mM of MgCl2, and 50 μg/ml of bacitracin.
The bound [^3H]-CP55940 is separated from the free [^3H]-CP55940 by filtration through GF/C glass fibre filter plates (Unifilter, Packard) pre-impregnated with 0.1% polyethylenimine (P.E.I.), using a Filtermate 196 (Packard). The filters are washed with Tris-HCl 50 mM buffer, pH 7.4 at 0-4° C. and the radioactivity present is determined using a counter (Packard Top Count).
The specific binding is obtained by subtracting the non-specific binding (determined in the presence of 0.1 μM of WIN55212-2 from the total binding). The data are analyzed by computer-assisted non-linear regression (MDL). For each test, a Cheng-Prusoff correction is made in order to convert the IC50 to the inhibition constant, Ki.
where [L] is the concentration of the radioligand used in the test and Kd is the radioligand equilibrium dissociation constant.

T1 sequence (P34972 whole entry): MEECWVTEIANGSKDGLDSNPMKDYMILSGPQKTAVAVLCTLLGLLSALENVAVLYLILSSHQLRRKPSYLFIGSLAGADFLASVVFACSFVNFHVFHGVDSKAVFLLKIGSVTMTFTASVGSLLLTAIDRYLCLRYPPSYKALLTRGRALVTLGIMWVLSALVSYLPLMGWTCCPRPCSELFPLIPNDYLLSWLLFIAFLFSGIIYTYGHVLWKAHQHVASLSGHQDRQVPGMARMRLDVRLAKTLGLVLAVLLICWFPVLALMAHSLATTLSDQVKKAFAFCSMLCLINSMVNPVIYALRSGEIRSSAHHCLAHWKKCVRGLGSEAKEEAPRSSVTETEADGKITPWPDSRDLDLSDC

Compound | Ki (read-out: Ki < 0.5 μM) | Ki (read-out: Ki < 5 μM)
COc1cccc(-c2ccc(-c3nc4cc(C)sc4c(=O)n3CCN3CCCCC3)cc2)c1 [Example 88] | < 0.5 µM | < 5 µM
O=c1c2sccc2nc(-c2ccc(-c3ccccc3)cc2)n1CCc1cccs1 [Example 3] | – | < 5 µM
O=c1c2sccc2nc(-c2ccc(-c3ccccc3)cc2)n1CCC1=CCCCC1 [Example 71] | < 0.5 µM | < 5 µM
O=c1c2sccc2nc(-c2ccc(-c3ccccc3)cc2)n1CCc1ccncc1 [Example 15] | < 0.5 µM | < 5 µM
O=c1c2sccc2nc(-c2ccc(C3CCCCC3)cc2)n1CCN1CCOCC1 [Example 37] | < 0.5 µM | < 5 µM
O=c1c2sc(-c3ccccc3)cc2nc(-c2ccc(-c3ccccc3)cc2)n1CCN1CCCCC1 [Example 58] | < 0.5 µM | < 5 µM
O=c1c2sccc2nc(-c2ccc(C3CCCCC3)cc2)n1CCN1CCCCCC1 [Example 38] | < 0.5 µM | < 5 µM
COc1ccc(CCn2c(-c3ccc(-c4ccccc4)cc3)nc3ccsc3c2=O)cc1OC [Example 2] | – | < 5 µM
Cc1cc2nc(-c3ccc(-c4cccc(F)c4)cc3)n(CCN3CCCCC3)c(=O)c2s1 [Example 85] | < 0.5 µM | < 5 µM
Cc1cccc(C)c1-c1ccc(-c2nc3ccsc3c(=O)n2CCN2CCCCC2)cc1 [Example 81] | < 0.5 µM | < 5 µM
O=c1c2sc3ccccc3c2nc(-c2ccc(-c3ccccc3)cc2)n1CCC1CCOCC1 [Example 22] | – | < 5 µM
O=c1c2sccc2nc(-c2ccc(C3CCCCC3)cc2)n1CCc1ccccc1 [Example 18] | < 0.5 µM | < 5 µM
O=c1c2sccc2nc(-c2ccc(-c3ccccc3F)cc2)n1CCN1CCCCC1 [Example 69] | < 0.5 µM | < 5 µM
O=c1c2sccc2nc(-c2ccc(-c3ccccc3)cc2)n1CCc1ccccc1 [Example 13] | < 0.5 µM | < 5 µM
O=c1c2sccc2nc(-c2ccc(C3CCCCC3)cc2)n1CCN1CCCCC1 [Example 36] | < 0.5 µM | < 5 µM
O=c1c2sccc2nc(C2CCC(c3ccccc3)CC2)n1CCN1CCCCC1 (stereo not shown) [Example 53] | < 0.5 µM | < 5 µM
O=C(c1ccccc1)c1ccc(-c2nc3ccsc3c(=O)n2CCN2CCOCC2)cc1 [Example 30] | < 0.5 µM | < 5 µM
O=c1c2sccc2nc(-c2ccc(-c3ccccc3)cc2)n1CCN1CCCCCC1 [Example 34] | < 0.5 µM | < 5 µM
O=c1c2sccc2nc(-c2ccc(-c3ccc(Cl)c(Cl)c3)cc2)n1CCN1CCCCC1 [Example 56] | < 0.5 µM | < 5 µM
Cc1cccc(-c2ccc(-c3nc4c(C)c(C)sc4c(=O)n3CCN3CCCCC3)cc2)c1 [Example 70] | < 0.5 µM | < 5 µM
Cc1cccc(-c2ccc(-c3nc4ccsc4c(=O)n3CCN3CCCCC3)cc2)c1 [Example 62] | < 0.5 µM | < 5 µM
O=c1c2sccc2nc(-c2ccc(C3CCCCC3)cc2)n1CCC1CCOCC1 [Example 17] | < 0.5 µM | < 5 µM
O=c1c2sccc2nc(-c2ccc(-c3ccccc3C(F)(F)F)cc2)n1CCN1CCCCC1 [Example 66] | < 0.5 µM | < 5 µM
O=C1c2ccccc2C(=O)c2cc(-c3nc4ccsc4c(=O)n3CCN3CCCCC3)ccc21 [Example 25] | < 0.5 µM | < 5 µM
O=c1c2sccc2nc(-c2ccc(-c3cccc(F)c3)cc2)n1CCN1CCCCC1 [Example 63] | < 0.5 µM | < 5 µM
O=C(c1ccccc1)c1ccc(-c2nc3ccsc3c(=O)n2CCN2CCCCC2)cc1 [Example 29] | < 0.5 µM | < 5 µM
O=c1c2sc3ccccc3c2nc(-c2ccc(-c3ccccc3)cc2)n1CCN1CCCCC1 [Example 44] | < 0.5 µM | < 5 µM
Cc1cc(C)cc(-c2ccc(-c3nc4ccsc4c(=O)n3CCN3CCCCC3)cc2)c1 [Example 80] | < 0.5 µM | < 5 µM
Cc1ccc(-c2ccc(-c3nc4ccsc4c(=O)n3CCN3CCCCC3)cc2)cc1 [Example 65] | < 0.5 µM | < 5 µM
